Values joined by “and” are separate entries in the source; they are usually repeats but may differ in a detail not shown here. Equal values may be shown once.
What was measured:
[1] = test system: human LDL receptor promoter; assay: in vitro Luciferase Activity Test (LDL receptor promoter-luciferase reporter in recombinant CHO cells); type: cell-based; conditions: maximum activity (%) over control, 15% luciferase activity cutoff point (footnote 2)
Summary of the method: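 Stably transfected CHO clone S27/B30 carries the 1546 bp human LDL receptor promoter driving firefly luciferase; an SV40 promoter-luciferase CHO line serves as nonspecific-transcription control. Assay medium is DMEM/Ham's F-12 (3:1) with 20 mM HEPES, 0.5% bovine albumin and 0.5 µg/ml 25-hydroxycholesterol.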

[2] = test system: Syrian Golden hamsters; assay: In vivo serum cholesterol lowering in hamsters fed a cholesterol test diet; conditions: hamsters
Description: Syrian Golden hamsters were fed a cholesterol test diet made of 10% coconut oil and 0.12% cholesterol (by weight) in Purina 5001 Rodent Chow to induce hypercholesteriolemia.
After two weeks on the cholesterol test diet the hamsters were bled from the orbital sinium under light CO2 anesthesia. Serum was prepared and analyzed for cholesterol using a commercial test kit (Cholesterol High Performance, Single Vial™, product of Boehringer Mannheim Corp., Indianapolis, IN, USA). The hamsters were separated into groups of six animals, such that each group had approximately the same mean serum cholesterol levels. Selected compounds of the invention were incorporated into the Cholesterol Test Diet at 0.2% (w/w) and fed to the hamsters for one week. A control group of hamsters continued on the Cholesterol Test Diet during the same one-week period. The dose of test compounds of the invention was equivalent to 100 mg/kg/day based on the weight of the hamsters and their diet consumption. Upon completion of the test period, the animals were bled and serum cholesterol determined as above.
Mean serum cholesterol values from the test hamsters were compared to values from the control group and tested for significance at the Z.05 level using Dunnett's test.

[3] = test system: African green monkeys; assay: Monkey pilot study of plasma cholesterol levels on a hypercholesterolemic diet; type: in vivo; conditions: for Plasma Cholesterol Levels, individual animals: animals 1-6; for Plasma Cholesterol Levels, Mean: mean of six animals
Description: To study the effect in short term lowering of plasma cholesterol concentrations in African green monkeys.
Six African green monkeys were given a hypercholesterolemic diet containing 16.4% lard and 0.33% cholesterol for two weeks to establish a baseline cholesterol level. Thereafter, two daily doses of [14a,5a]-4-(2-propenyl)cholestan-3a-ol, the compound of Example 5, were administered in their feed at 25 mg/kg/day total daily dosage. After ten days the drug dose was increased to 50 mg/kg/day for an additional 3 weeks, followed by a washout period when no drug was administered and the hypercholesterolemic diet was maintained. Blood samples were drawn on the days indicated and plasma was prepared foranalysis. Cholesterol was determined by standard enzymatic techniques(method of Allain et aI., using diagnostics high performance Cholesterol Reagent No. 236691, product of Boehringer Mannheim Co., Indianapolis, Indiana USA).

Compound: C=CC[C@@H]1[C@H](O)CC[C@@]2(C)[C@H]1CC[C@@H]1[C@@H]2CC[C@]2(C)[C@@H]([C@H](C)CCCC(C)C)CC[C@@H]12 [Example 5, [4a,5a]-4-(2-propenyl)cholestan-3a-ol]
- Emax ([1]; Homo sapiens, CHO, read-out: MA%): 121%
- MA% [1]: 120% and 135%
- inhibition in vivo at 100 mg/kg/day ([2]; Mesocricetus auratus, feed or water, 168 h, 0.2% (w/w) in diet for one week (100 mg/kg/day), negative values = serum cholesterol increased relative to control, read-out: Percent Lowering of Cholesterol from Control Value Mean): 49.2%
- Serum Cholesterol Mean ([2]; 0.2% (w/w) in Cholesterol Test Diet for one week, equivalent to 100 mg/kg/day, groups of six, control mean 337, listed as (2)): 171 mg/dL
- Plasma Cholesterol Levels, individual animals ([3]; Day 4, dose 50 mg/kg/day in feed, 50 mg/kg/day): 184 and 878 and 155 and 159 and 148 and 211
- Plasma Cholesterol Levels, Mean ([3]; Day 4, dose 50 mg/kg/day): 205
- Plasma Cholesterol Levels, individual animals ([3]; Day 5, dose 25 mg/kg/day in feed, 25 mg/kg/day): 268 and 411 and 175 and 182 and 189 and 252
- Plasma Cholesterol Levels, Mean ([3]; Day 5, dose 25 mg/kg/day, Day 0 mean 252): 244
- Plasma Cholesterol Levels, individual animals ([3]; Day 7 Washout (no drug, diet maintained)): 209 and 251 and 165 and 192 and 174 and 200
- Plasma Cholesterol Levels, Mean ([3]; Day 7 Washout): 199
- Plasma Cholesterol Levels, individual animals ([3]; Day 8, dose 25 mg/kg/day in feed, 25 mg/kg/day): 208 and 386 and 172 and 184 and 174 and 249
- Plasma Cholesterol Levels, Mean ([3]; Day 8, dose 25 mg/kg/day): 226
- Plasma Cholesterol Levels, Mean ([3]; Day 12 (50 mg/kg/day per method)): 190
- Plasma Cholesterol Levels, individual animals ([3]; Day 12 (dose not given; 50 mg/kg/day per method), 50 mg/kg/day): 172 and 276 and 159 and 169 and 157 and 206
- Plasma Cholesterol Levels, individual animals ([3]; Day 14 Washout (no drug, diet maintained)): 226 and 311 and 176 and 159 and 173 and 213
- Plasma Cholesterol Levels, Mean ([3]; Day 14 Washout): 210
- Plasma Cholesterol Levels, Mean ([3]; Day 20 (50 mg/kg/day per method)): 192
- Plasma Cholesterol Levels, individual animals ([3]; Day 20 (dose not given; 50 mg/kg/day per method), 50 mg/kg/day): 188 and 314 and 143 and 161 and 142 and 206
- Plasma Cholesterol Levels, individual animals ([3]; Day 21 Washout (no drug, diet maintained)): 270 and 344 and 193 and 168 and 216 and 246
- Plasma Cholesterol Levels, Mean ([3]; Day 21 Washout): 240
- lowering plasma cholesterol levels ([3]; conclusion of the pilot study, 25 then 50 mg/kg/day in feed): effective in lowering plasma cholesterol levels
